Laboratory results: patent US20120231083A1, “SUSTAINED RELEASE CANNABINOID MEDICAMENTS” (The Board of Trustees of the University of Illinois, priority 2010, published 2012)
Where two headings read alike, the source gives them in different places.

What was measured:
[1] = described in US 2007/0072939; not shown for sleep related disorders; cited from earlier work
[2] = cited from earlier work
[3] = in vivo; cited from earlier work
subjects = assay: Oral dosing comparator 1: single immediate release dosage, AHI; assay type: in vivo, human
Procedure: (§1) For the purpose of comparing oral medicaments (i.e., providing a comparator), a medicament is orally administered to one or more subjects. The various factors affecting ADME (absorption, distribution, metabolism, and excretion) of the drug are standardized. For example, the patient is optionally a fasted patient and optionally falls asleep within one of 15 minutes or 30 minutes of laying down for bed. The same subjects are used for comparing different medicaments (after providing an appropriate wash-out period).
(§2) Plasma levels of the drug (e.g. THC) and metabolites thereof (e.g. 11-OH-THC) are taken at regular intervals (e.g. every 30 minutes) during a treatment window (e.g. from T0 to T8hr).
(§3) Therapeutic responses are recorded throughout the entire treatment window.
(§4) Therapeutic responses are correlated with pharmacokinetic parameters of the drug or metabolites thereof. The pharmacokinetic parameters include one or more of: plasma concentration and AUC (at various times).
An oral dosing “comparator” is provided by orally administering an immediate release dosage of cannabinoid (e.g. MARINOL® soft gel).

rat model of sleep apnea = conditions: 10 mg/kg intraperitoneal, US 2004/0127572; cited from earlier work
sleep apnea patient = assay: Oral dosing comparator 2: two immediate release dosages in succession (T0 and T3), AHI; assay type: in vivo, human; conditions: immediate release dosages at T0 and T3
Procedure: as §1, §2, §3, §4
A second oral dosing comparator is provided by the method of Example 6, where a first immediate release dosage of cannabinoid (e.g. 2.5 mg MARINOL® soft gel) to a sleep apnea patient 30 minutes before bed at To. The patient is allowed to fall asleep and at a predetermined time, the subject is briefly woken to receive a second immediate release dosage of MARINOL® soft gel (e.g. at T3) and allowed to return to sleep.

Row | Structure (SMILES) | activity compared to the trans-(−)-enantiomer [1] | Side effects with co-administration ([2]; with antipyrine, barbiturates) | Side effects with co-administration ([2]; with atropine, scopolamine, antihistamines, other anticholinergic agents) | Side effects with co-administration ([2]; with barbiturates, benzodiazepines, ethanol, lithium, opioids, buspirone, antihistamines, muscle relaxants, other CNS depressants) | Side effects with co-administration ([2]; with disulfiram, person who smoked marijuana) | Side effects with co-administration ([2]; with fluoxetine 20 mg/day x 4 wks, person, smoking marijuana) | Side effects with co-administration ([2]; with theophylline, smoking of marijuana) | Side Effects, Digestive [3] | Side Effects, Musculoskeletal [3] | Side Effects, Skin and Appendages [3] | Side Effects, Special senses [3] | therapeutic window (subjects; lower doses (e.g. 5 mg-20 mg)) | AHI (subjects; subjects receiving 1 to 75 mg) | breathing cessation during non-REM (NREM) sleep (rat model of sleep apnea) | therapeutic window (sleep apnea patient; lower doses (e.g. 5 mg-20 mg)) | AHI (sleep apnea patient; subjects receiving 1 to 75 mg)
1 | CCCCCc1cc(O)c2c(c1)OC(C)(C)C1CCC(C)=CC21 (single isomer, unassigned) [trans-(+) enantiomer, trans-(+)-THC] | about 1% | – | – | – | – | – | – | – | – | – | – | – | – | – | – | –
2 | CCCCCc1cc(O)c2c(c1)OC(C)(C)[C@@H]1CCC(C)=C[C@@H]21 [Dronabinol, Delta-9-tetrahydrocannabinol] | – | Decreased clearance of these agents, | super-additive tachycardia, drowsiness | Additive drowsiness and CNS depression | reversible hypomanic reaction was reported | became hypomanic after smoking marijuana; | Increased theophylline metabolism reported | Diarrhea*, fecal incontinence. | Myalgias. | Flushing*. | Vision difficulties. | does not consistently extend through the seventh or eighth hour of sleep | improved | reduced breathing cessation | generally extends through the seventh or eighth hour of sleep | improved
